{"source": "patent US20060052440A1", "about": "“Medicinal composition for treating sudden deafness” (Nichimo Co., Ltd., priority 2002, published 2006)", "assay": "SOD-like activity (superoxide scavenging activity) by ESR spin trap method, hypoxanthine-xanthine oxidase system with DMPO", "type": "biochemical", "details": "for SOD-like activity after emulsification: after emulsification (Tween-80 or other emulsifier), figures in parentheses; for SOD-like activity (superoxide scavenging activity): not emulsified, extracted with untreated 0.1 M phosphate buffer", "from_the_text": "This superoxide scavenging activity will be described in further detail below. Superoxides (O2') are a type of active oxygen that are produced by neutrophils and macrophages and protect the body from impurities, but also are the cause of pulmonary emphysema, cataracts, arteriosclerosis, psoriasis, and the like. These superoxides are, therefore, a double-edged sword. The enzyme activity of superoxide dismutase (SOD) and superoxide scavenging activity (SOSA or SOD-like activity) are examples of the ability of food products to eliminate O2'. The former is an enzyme and is therefore broken down by digestive enzymes and goes virtually unabsorbed in vivo when taken orally. Consequently, the latter is promising for food products. […] ESR is a method for measuring SOD-like activity and assessing the ability of […] to scavenge O2'. […] This method is also called the spin trap method. In accordance with preparation by this spin trap method, only the water-soluble components are extracted in order to extract the component with SOD-like activity contained in a sample with 0.1 M phosphate buffer. […] Consequently, measuring superoxide […] activity with the isoflavone pre-emulsified in a small amount of oil or fat was contemplated."}
{"smiles": "O=c1c(-c2ccc(O)cc2)coc2cc(O)ccc12", "note": "[Daidzein, daidzein]", "values": [{"measurement": "SOD-like activity after emulsification", "value": "(300 or units/g"}, {"measurement": "SOD-like activity (superoxide scavenging activity)", "value": "300 or less units/g"}]}
{"smiles": "O=c1c(-c2ccc(O)cc2)coc2cc(O)cc(O)c12", "note": "[Genistein, genistein]", "values": [{"measurement": "SOD-like activity after emulsification", "value": "(300 or units/g"}, {"measurement": "SOD-like activity (superoxide scavenging activity)", "value": "300 or less units/g"}]}
